# How the values were obtained:
# [1] = tested on: male beagle dogs; test: Clinical signs and body weight in the single dose dog study (Example 5); format: in vivo, beagle dog (Canis familiaris); settings: study period
# Text: Before dosing initiation, all animals were weighed and assigned to treatment groups. At the start of treatment, animals were 7-16 months of age and ranged in weight as 6.4 to 9.4 kg. Animals were housed individually in stainless steel cages equipped with a mesh-type floor and an automatic watering valve. A standard certified pelleted commercial dog food (approximately 400 g of Certified Canine Diet 5C07, PMI Nutrition International, Inc.) was provided to each animal once daily, except during designated procedures. Maximum allowable concentrations of contaminants in the diet (e.g., heavy metals, aflatoxin, organophosphates, chlorinated hydrocarbons, PCBs) were controlled and routinely analyzed by the manufacturers. It was considered that there were no known contaminants in the food that could have interfered with the objectives of the study. Municipal tap water, which was softened, purified by reverse osmosis and exposed to ultraviolet light, was freely available except during designated procedures. It was considered that there were no known contaminants in the water that could have interfered with the objectives of the study. Each Animal was provided with a floor toy, except during designated activities.
# Individual body weights were measured once during the predose period and prior to each dose on dosing days.
# [2] = tested on: canine; test: Canine chronic toxicology study; format: in vivo, dog; settings: very highest 2,000 mg/kg dose level
structure (smiles),measurement,setting,value
"CC(=O)N[C@H]1[C@H]([C@H](O)[C@H](O)CO)OC(O)(C(=O)O)C[C@@H]1O (stereo partly drawn) [sialic acid, 5-N-acetylneuraminic acid]",treatment-related clinical signs,[1]; oral or intravenous administration,no treatment-related clinical signs
same,body weight or body weight gains,[1],no treatment related changes in body weight or body weight gains
same,finding in canine chronic toxicology study,[2],loosening of stools

# Source: patent publication US9554987B2, “Methods and formulations for treating sialic acid deficiencies” (ULTRAGENYX PHARMACEUTICAL INC., priority 2010, dated 2017)
